From ChEMBL document CHEMBL1146140 (Bioorg Med Chem Lett, 2006)
pIC50: −log10 of the molar value.

Key:
[1] = target: T1, 1-deoxy-D-xylulose 5-phosphate reductoisomerase (Escherichia coli K-12, UniProt P45568); experiment: Inhibition of recombinant Escherichia coli DXR
T1 sequence (P45568 whole entry): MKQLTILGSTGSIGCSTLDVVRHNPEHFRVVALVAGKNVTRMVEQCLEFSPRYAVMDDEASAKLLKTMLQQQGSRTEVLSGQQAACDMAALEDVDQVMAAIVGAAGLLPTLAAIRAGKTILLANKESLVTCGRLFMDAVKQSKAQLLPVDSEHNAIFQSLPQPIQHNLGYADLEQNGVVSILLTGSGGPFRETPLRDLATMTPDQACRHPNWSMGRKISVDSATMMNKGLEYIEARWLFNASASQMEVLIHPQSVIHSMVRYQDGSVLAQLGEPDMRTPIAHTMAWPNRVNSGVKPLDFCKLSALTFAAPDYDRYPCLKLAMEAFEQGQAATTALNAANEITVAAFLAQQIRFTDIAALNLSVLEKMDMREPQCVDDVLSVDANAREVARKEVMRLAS

Plasmodium falciparum [2] = experiment: Antimalarial activity against Plasmodium falciparum Dd2; type: functional, organism-based
Plasmodium falciparum [3] = experiment: Antimalarial activity against Plasmodium falciparum 3D7; type: functional, organism-based

Row | Structure (SMILES) | pIC50 [1] | pIC50 (Plasmodium falciparum [2]) | pIC50 (Plasmodium falciparum [3])
1 | O=CN(O)CCC(c1ccc(Cl)c(Cl)c1)P(=O)(O)O (stereo not given) | 7.23 | 7.55 | 7.05
2 | CC(=O)N(O)CCC(c1ccc(Cl)c(Cl)c1)P(=O)(O)O (stereo not given) | 6.92 | 7.05 | 6.60
3 | CC(=O)N(O)CCC(c1ccccc1)P(=O)(O)O (stereo not given) |  | 6.46 | 6.26
4 | CC(=O)N(O)CCC(c1ccc(C)cc1)P(=O)(O)O (stereo not given) | 6.40 | 6.66 | 6.02
5 | COc1ccc(C(CCN(O)C=O)P(=O)(O)O)cc1 (stereo not given) | 6.81 | 6.70 | 6.44
6 | CC(=O)N(O)CCC(c1ccc(Cl)cc1)P(=O)(O)O (stereo not given) | 7.00 | 7.02 | 6.46
7 | COc1ccc(C(CCN(O)C(C)=O)P(=O)(O)O)cc1 (stereo not given) | 6.34 | 6.57 | 6.07
8 | O=CN(O)CCCP(=O)(O)O [FOSMIDOMYCIN] |  | 6.44 | 5.96
9 | CC(=O)N(O)CCCP(=O)(O)O [FR-900098] | 7.52 | 6.74 | 6.49
